Measurements reported in paper PMC3877285, “A New Strategy for Enhancing the Oral Bioavailability of Drugs with Poor Water-Solubility and Low Liposolubility Based on Phospholipid Complex and Supersaturated SEDDS” (PLoS ONE, 2013).
Values joined by “and” are separate entries in the source; they are usually repeats but may differ in a detail not shown here. Equal entries are not always repeated.

Key:
[1] = In vivo pharmacokinetics after oral dosing; settings: male, Sprague-Dawley, rat, plasma, 40 mg/kg equivalent to scutellarin, SD rats, n = 5, mean ± SD
Description: 20 male SD rats (300∼350 g) were fasted but allowed free access to water for 12 h, then divided randomly into 4 groups for the pharmacokinetics experiments of scutellarin powder, SPC, conventional SEDDS and Super-SEDDS. In order to avoid failure detection of plasma drug, the various formulations were orally administrated to rats at a dose of 40 mg/kg, according to the highest dosage of commercial oral solution, with a ceiling volume of 10 mL/kg when dispersed by purified water. The blood samples of 0.5 mL were collected in a 1.5 mL heparin treated EP tube from the orbital venous prior to the dose and at 0.5, 1, 2, 3, 4, 5, 6, 8, 10, 12, 24 and 36 h after the dose. The plasma was immediately isolated from whole blood by centrifugation (4000 rpm, 10 min) at room temperature and then stored in a −80°C freezer until analysis.
An HPLC analysis system (HP 1100 series, Agilent Technologies, Wilmington, Germany) of a quaternary pump, an autosampler and a UV detector with an ODS-C18 column (250 mm×4.6 mm i.d., Sepax Technologies Inc., Delaware, USA), was used for the determination of scutellarin. The mobile phase was a mixture of methanol, acetonitrile and 50 mM KH2PO4, at a ratio of 22∶15:63 (v/v/v), with pH of 2.5 adjusted by phosphoric acid. The detection was carried out at a wavelength of 335 nm, with a flow rate of 1.0 mL/min at room temperature.
200 µL of thawed plasma was removed to a 10 mL EP tube. 50 µL of internal standard working solution (20 µg/mL of rutin in methanol) was added and subsequently acidified by 100 µL of phosphoric acid (10 wt %) for 10 min. Then, 3 mL of ethyl acetate was infused for extracting scutellarin from plasma. After 30 min vortex, samples were centrifuged at 4000 rpm for 10 min, and the isolated supernatant was concentrated under nitrogen gas flow in bath of 40°C. Before HPLC detection, it needed to be re-dissolved by 100 µL of HPLC mobile phase and centrifuged at 10,000 rpm for 5 min. The whole analytical methodology including plasma treatment and HPLC detection was validated by accuracy and precision (see Table 2) as previously described.
The plasma data was analyzed in batches by DAS 2.0 (Mathematical Pharmacology Professional Committee of China, Shanghai, China). Peak plasma concentration (Cmax) and the time to reach Cmax (Tmax) were based on measured values. Area under the curve (AUC0-t) was calculated via a trapezoidal area method. […] All values were expressed as the mean ± standard deviation. The significant differences between each group were determined by one way analysis of variance (ANOVA) using the statistical package for social sciences software (SPSS® version 17.0, SPSS Inc., Shanghai, China), with the significance defined as p<0.05 and high significance as p<0.001.

[2] = Ex vivo intestinal absorption, everted intestinal sac; format: in vitro ADME, Sprague-Dawley (SD) rats; settings: everted rat jejunum sac, 50 µg/mL scutellarin
Description: An everted intestinal sac experiment, modified according to the method previously described, was adopted to evaluate the ex vivo intestinal absorption of scutellarin. Kreb-Ringer’s (K–R) solution, containing 342.0 mM NaCl, 6.7 mM KCl, 5.9 mM CaCl2·2H2O, 5.3 mM MgCl2, 59.5 mM NaHCO3, 2.1 mM NaH2PO4 and 5.5 mM glucose, was prepared in advance. Half was cooled in 4°C refrigerator and the rest was warmed in a 37°C water bath. Scutellarin powder, SPC, conventional SEDDS and Super-SEDDS were dispersed in warmed K–R solution with a concentration of 50 µg/mL scutellarin, approximate to the lowest released concentration of drug during the lipolysis test. Male Sprague-Dawley (SD) rats were fasted overnight and then anesthetized with an intraperitoneal injection of chloral hydrated (10%, w/v) at a dose of 0.4 mL per 100 g. After dissection of the abdominal wall, the jejunum (21 cm from the pylorus) was carefully isolated without any mesentery, clipped into segments of 10 cm, and quickly rinsed in cooled K–R solution. […] After the tests, the length and width of the intestinal segments were measured for the calculation of uptake amount per unit area.

[3] = parameters: method as in PMID 16269273; settings: cited from earlier work
[4] = In vitro lipolysis study; format: in vitro ADME; settings: lipolysis medium pH 6.5, pancreatic lipase, 37°C, 20 mg scutellarin equivalent, n = 3
Description: In vitro lipolysis studies were performed as previously described, [22] with minor modifications. Briefly, lipolysis medium was prepared in advance, containing 5 mM bile salt, 2 mM trizma maleate buffer, 1.25 mM phosphatidyl choline, and 150 mM sodium chloride, and was adjusted to pH 6.5 with 0.1 M NaOH. Then according to the single-dosage of commercial oral solution detailed as 70 mg scutellarin administrated into 900 mL GI medium, scutellarin powder, SPC, conventional SEDDS and super-SEDDS with a dose of 20 mg (equivalent to scutellarin) were dispersed in 250 mL warmed lipolysis medium (37°C), with a stirring rate of 100 rpm. After that, lipolysis was initiated by adding 50 mL freshly prepared pancreatic lipase solution (2000 TBU/mL, pH 6.5, 37°C), then controlled by constantly pumping 0.15 M CaCl2 with a rate of 0.25 mL/min. Over the lipolysis period, pH value was maintained at 6.5 by a pH-stat device (902 Titrando, Metrohm, Switzerland). At pre-determined time intervals (5, 10, 20, 30, 45, 60, 90, 120 min), 5 mL digested medium was taken and filtered by 0.45 µm polypropylene membrane. The filtered samples were immediately diluted 10 times with acetonitrile to stop lipolysis and induce protein precipitation. At last, the diluted samples were centrifuged at 10,000 rpm for 10 min (Centrifuge 5810R, Eppendorf, Germany), and subsequently analyzed by HPLC (as mentioned later).

O=C(O)[C@H]1O[C@@H](Oc2cc3oc(-c4ccc(O)cc4)cc(=O)c3c(O)c2O)[C@H](O)[C@@H](O)[C@@H]1O [Scutellarin powder, Scutellarin]
AUC(0-t) [1]: 2670 ± 404 ng·h/mL
Cmax [1]: 178 ± 35 ng/mL
Tmax [1]: 5.2 ± 0.8 h
half-life ([1]; read-out: T1/2z (converted)): 34.8 ± 22.8 h
intestinal absorption (cumulative) [2]: 0.04 µg/cm^2
pKa [3]: 3.29
cumulative dissolution percentage [4]: 70% and 70.1±3.2%
